The test system of one assay is MCF7 cells. Briefly: cell growth of MCF7 cells with tamoxifen (crystal violet). To be noted: combination with tamoxifen. The assay is classed as cell-based. On the procedure:
Commercially available MDA-MB-231, MDA-MB-468, MCF7 and A375M, IMR90 (IMR-90 (ATCC® CCL-186TH) cells were grown at 37° C. and 5% CO2 in DMEM medium (Dulbecco's Modified Eagle Medium, 4.5 g/I glucose; 30 mg/I L-Glutamine (Gibco)) supplemented with 10% foetal bovine serum, 100 U/ml penicillin and 100 μg/ml streptomycin.
Cell growth in the presence of EB1, tamoxifen or the combination of both inhibitors was measured by crystal violet. Data were normalized to the vehicle control.

Another assay concerns 22Rv1 cells. Briefly: apoptosis assay of 22Rv1 cells (Propidium Iodide staining). To be noted: 22Rv1, 72 h, dual treatment EB1 and Enzalutamide. In kind it is cell-based. On the procedure: Dual inhibition of AR and eIF4E phosphorylation induces cell death via apoptosis. […] With this aim, 22Rv1 (A) cells were treated either with vehicle (DMSO), enzalutamide, EB1 or a combination of both with the indicated concentrations for 72 h. Whole cell lysates were then prepared and subjected to western blot analysis with the indicated antibodies. […] Increase in CI-PARP levels indicated apoptotic induction under the combinatory treatment. (B) Apoptosis assays of 22Rv1 cell line after treatment with the indicated concentrations of Enzalutamide, EB1 and the combination of both for 72 h, quantified by analysis of fragmented/condensed chromatin after Propidium Iodide staining. […] Representative Propidium Iodide and Hoechst staining images of 22Rv1 cell line were obtained, although data are not shown. Data are mean of two technical replicates from one experiment ±SEM ***p<0.001 two-tailed Student's test

The next assay has as its system MCF10 cells. As to the kind of experiment: in vitro proliferation assay (crystal violet), MCF10. In kind it is cell-based. The settings on record: non-tumour cells MCF10, concentrations necessary to inhibit MNK activity. On the procedure: MCF10A cells (also commercially available) were grown in DMEM/F-12 medium (Dulbecco's Modified Eagle Medium: 3.125 g/L D-Glucosa, 365 mg/L L-Glutamine, Nutrient Mixture F-12 (Gibco)) supplemented with 10% FBS, 100 U/ml penicillin, 100 μg/ml streptomycin, 1% L-Glutamine (Cambrex), 10 ng/ml choleric toxin (Sigma-Aldrich), 0.005 mg/ml insulin (Sigma), 100 ng/ml hydrocortisone (Sigma) and 20 ng/ml EGF (Epidermal growth factor, Sigma).
In 96-well plates, 5000 cells were seeded for each condition. After 24 h, the cells were treated with the compound at the corresponding concentration. The stocks of compounds were prepared in 100% DMSO at a concentration 200 times more concentrated than the treatment concentration. Thus, in all cases, the final concentration of DMSO in the medium is 0.5%. After incubation, the medium was removed and the cells were fixed with 4% PFA (100 μl per well) for 30 minutes. Two washes with PBS were performed.
Cells were stained with crystal violet (0.5% in EtOH): 100 μl were added to each well, stirred for 15 minutes, washed with water and left to dry. The content of each well was dissolved in 200 μl of 15% AcOH and the absorbance thereof was measured at 595 nm.

A further assay concerns 320-kinase panel. As to the kind of experiment: selectivity on a 320-kinase panel. The assay is classed as biochemical. To be noted: 1 μM. On the procedure: (§1) The kinase activity of the compound was measured by a radiometric kinase assay (^33PanQinase® Activity Assay) carried out by Proqinase (www.proqinase.com).
(§2) The assays were carried out in 96-well FlashPlates™ by PerkinElmer (Boston, Mass., USA) with a reaction volume of 50 μl. The reaction cocktail was pipetted in 4 steps: (1) 20 μl buffer, (2) 5 μl ATP solution (in H2O), (3) 5 μl compound (in 10% DMSO) and (4) 20 μl enzyme/substrate mixture. Lastly, the cocktail contained 70 mM HEPES-NaOH pH 7.5, 3 mM MgCl2, 3 mM MnCl2, 3 μM sodium orthovanadate, 1.2 mM DTT, 50 μg/ml PEG20000, ATP (1 μM for MNK1 and 0.3 μM for MNK2), [γ-^33P]-ATP (approx. […] per well), protein kinase (variable amounts depending on the batch) and substrate (2 μg/50 μl).
Reaction cocktails were incubated at 30° C. for 60 minutes. The reaction was stopped with 50 μl of 2% H3PO4 (v/v), the plates were sucked, they were washed twice with 200 μl of 0.9% NaCl (w/v) and the incorporation of ^33Pi (MicroBeta microplate scintillation counter, Wallac) was determined. […]
(§3) The residual activity (in %) for each well of a particular plate was calculated using the following formula (wherein high control is the kinase activity in absence of an inhibitor and low control is the radioactivity value of the substrate in absence of a kinase).
(§4) To study selectivity, residual activity was measured at 1 μM from a 320-kinase panel.

Assay [1] concerns PD-L1 in MDA-MB-231 cells. Briefly: PD-L1 levels by western blot in MDA-MB-231 cells. In kind it is cell-based, human. On the procedure:
MDA-MB-231 cells were treated for 48 h with the indicated concentrations of the inhibitors. DMSO was used as vehicle control. Protein extracts were prepared and western blot analysis were carried out. Data are depicted in FIG. 10.
In general terms: In western blotting, separated proteins are transferred to a membrane and probed.

Another assay concerns the target T1, MNK1 (Homo sapiens, UniProt Q9BUB5).
T1 construct: purchased Proqinase
As to the kind of experiment: radiometric kinase assay (33PanQinase Activity Assay), MNK1. The assay is classed as biochemical. On the procedure:
as §1, §2
Reaction cocktails were incubated at 30° C. for 60 minutes. The reaction was stopped with 50 μl of 2% H3PO4 (v/v), the plates were sucked, they were washed twice with 200 μl of 0.9% NaCl (w/v) and the incorporation of ^33Pi (MicroBeta microplate scintillation counter, Wallac) was determined. All assays were performed with a Beckman Coulter/SAGIAN™ system.
as §3
To screen compounds, the residual activity of both kinases was analysed after treatment with 10 μM of the compounds.
as §4

Each structure is given as a SMILES string.

In general, inhibition refers to how much of the control response was suppressed.

T1 sequence (Q9BUB5 whole entry): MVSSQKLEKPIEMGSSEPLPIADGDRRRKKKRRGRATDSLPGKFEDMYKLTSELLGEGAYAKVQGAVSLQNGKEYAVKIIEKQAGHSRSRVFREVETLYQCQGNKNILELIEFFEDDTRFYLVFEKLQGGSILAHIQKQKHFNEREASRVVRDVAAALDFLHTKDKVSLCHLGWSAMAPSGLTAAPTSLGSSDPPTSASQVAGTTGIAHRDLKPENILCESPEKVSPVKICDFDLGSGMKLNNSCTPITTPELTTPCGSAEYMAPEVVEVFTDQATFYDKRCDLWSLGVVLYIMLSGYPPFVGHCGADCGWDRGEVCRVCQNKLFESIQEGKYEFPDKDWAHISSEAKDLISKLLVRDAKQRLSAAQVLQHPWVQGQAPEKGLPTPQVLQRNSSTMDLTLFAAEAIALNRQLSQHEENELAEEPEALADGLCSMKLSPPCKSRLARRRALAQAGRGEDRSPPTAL

For `Nc1n[nH]c2nc(-c3ccccc3)cc(-c3ccccc3)c12` [EB1, 4,6-diphenyl-1H-pyrazolo[3,4-b]pyridin-3-amine], the “sensitivity of MCF7 cells to tamoxifen” value with MCF7 cells is recorded as “increased sensitivity to tamoxifen”. In the assay with 22Rv1 cells, the apoptotic cell population result is “Remarcable increase in apoptotic cell population”. In addition, the “effect on cell growth” value with MCF10 cells is reported as “does not affect the cell growth”. The “number of other kinases affected in an equivalent manner” value in the assay with 320-kinase panel worked out at 16. Further, in assay [1] (MDA-MB-231, 48 h), the “levels of PD-L1” value was “reduces levels of PD-L1”. Further, in assay [1] (at comparable inhibition rates of eIF4E phosphorylation), the “potency on PD-L1 compared with eFT508 and CGP57380” value is recorded as “equally potent or superior”. Moreover, the remaining activity at 10 µM at MNK1 (after treatment with 10 μM compound, ATP 1 μM, read-out: residual activity of MNK1) was determined as 14%. Testing at 1 µM against MNK1 (at 1 uM, kinase panel) gave an inhibition of 48%.

The record behind these values is patent US20220257571A1, “INHIBITOR OF MAP KINASE INTERACTING SERINE/THREONINE KINASE 1 (MNK1) AND MAP KINASE INTERACTING SERINE/THREONINE KINASE 2 (MNK2), CANCER THERAPY AND THERAPEUTIC COMBINATIONS” (FUNPACIÓ HOSPITAL UNIVERSITARI VALL D'HEBRON - INSTITUT DE …, priority 2019, published 2022).
